Consider two compounds from US11708367B2, “Compounds for the treatment of kinase-dependent disorders” (Exelixis, Inc., priority 2018, dated 2023).

The target in one assay is Mer (Homo sapiens (Human), UniProt Q12866). The assay is described as follows: Mer autophosphorylation ELISA in transient transfected 293A cells. The assay is classed as cell-based. The note with it: cellular, MERTK-transfected 293A cells, phospho-Mer ELISA.
The target in assay [1] is T1, Met (Homo sapiens (Human), UniProt P08581). Kind of assay: Human Met kinase assay (33P radiometric, KinaseProfiler). The assay is classed as biochemical. The note with it: 10 μM ATP, read-out: c-Met IC50.
Assay [2] has as its target T1, Met. Kind of assay: Met autophosphorylation ELISA in PC-3 cells. The assay is classed as cell-based. The note with it: cellular, HGF-stimulated, phospho-Met ELISA, read-out: c-Met IC50. The essentials: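 Serum-starved PC-3 cells treated 1 h with compound (8-point series, 0.3% DMSO), then stimulated 10 min with 100 ng/mL HGF. Phospho-Met (panTyr) quantified in lysates by sandwich ELISA; IC50 from 4-parameter logistic fit against DMSO and reference-inhibitor controls.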
Target sequence in this assay (P08581 25-1390): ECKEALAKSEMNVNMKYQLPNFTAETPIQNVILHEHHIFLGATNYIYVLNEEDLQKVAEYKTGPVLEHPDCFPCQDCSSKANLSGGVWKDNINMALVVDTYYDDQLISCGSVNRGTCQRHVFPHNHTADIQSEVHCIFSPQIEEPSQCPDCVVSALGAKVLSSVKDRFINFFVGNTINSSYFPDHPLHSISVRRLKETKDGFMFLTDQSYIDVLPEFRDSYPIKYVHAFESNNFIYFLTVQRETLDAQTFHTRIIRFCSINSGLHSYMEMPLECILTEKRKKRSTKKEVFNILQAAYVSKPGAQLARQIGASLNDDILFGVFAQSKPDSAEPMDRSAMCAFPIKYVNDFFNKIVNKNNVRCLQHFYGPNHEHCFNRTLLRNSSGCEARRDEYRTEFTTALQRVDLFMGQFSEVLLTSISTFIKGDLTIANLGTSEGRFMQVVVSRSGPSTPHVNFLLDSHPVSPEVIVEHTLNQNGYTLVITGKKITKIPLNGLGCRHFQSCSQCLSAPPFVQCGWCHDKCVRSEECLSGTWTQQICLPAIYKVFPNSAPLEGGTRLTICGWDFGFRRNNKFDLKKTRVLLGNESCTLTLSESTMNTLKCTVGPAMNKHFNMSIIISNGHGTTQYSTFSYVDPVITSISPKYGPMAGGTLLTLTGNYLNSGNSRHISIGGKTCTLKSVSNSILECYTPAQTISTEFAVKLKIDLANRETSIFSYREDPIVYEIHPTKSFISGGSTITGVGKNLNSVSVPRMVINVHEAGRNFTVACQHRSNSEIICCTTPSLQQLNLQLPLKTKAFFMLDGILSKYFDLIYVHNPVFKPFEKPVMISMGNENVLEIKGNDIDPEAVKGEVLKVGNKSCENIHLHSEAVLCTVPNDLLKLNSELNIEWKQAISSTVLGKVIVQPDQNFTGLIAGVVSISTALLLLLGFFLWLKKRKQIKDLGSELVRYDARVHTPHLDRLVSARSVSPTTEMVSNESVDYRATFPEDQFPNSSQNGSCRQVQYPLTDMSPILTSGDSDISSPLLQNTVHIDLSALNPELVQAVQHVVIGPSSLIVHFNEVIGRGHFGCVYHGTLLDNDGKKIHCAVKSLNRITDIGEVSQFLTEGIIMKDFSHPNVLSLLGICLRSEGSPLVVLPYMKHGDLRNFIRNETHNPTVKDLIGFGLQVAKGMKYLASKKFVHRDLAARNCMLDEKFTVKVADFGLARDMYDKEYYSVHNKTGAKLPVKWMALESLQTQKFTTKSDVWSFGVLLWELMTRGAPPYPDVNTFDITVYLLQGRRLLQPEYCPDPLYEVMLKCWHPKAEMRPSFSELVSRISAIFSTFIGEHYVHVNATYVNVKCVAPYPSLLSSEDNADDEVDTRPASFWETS
Background: In an ELISA, binding on a coated surface is turned into a signal by an enzyme label.

Mer, sequence (Q12866 21-999): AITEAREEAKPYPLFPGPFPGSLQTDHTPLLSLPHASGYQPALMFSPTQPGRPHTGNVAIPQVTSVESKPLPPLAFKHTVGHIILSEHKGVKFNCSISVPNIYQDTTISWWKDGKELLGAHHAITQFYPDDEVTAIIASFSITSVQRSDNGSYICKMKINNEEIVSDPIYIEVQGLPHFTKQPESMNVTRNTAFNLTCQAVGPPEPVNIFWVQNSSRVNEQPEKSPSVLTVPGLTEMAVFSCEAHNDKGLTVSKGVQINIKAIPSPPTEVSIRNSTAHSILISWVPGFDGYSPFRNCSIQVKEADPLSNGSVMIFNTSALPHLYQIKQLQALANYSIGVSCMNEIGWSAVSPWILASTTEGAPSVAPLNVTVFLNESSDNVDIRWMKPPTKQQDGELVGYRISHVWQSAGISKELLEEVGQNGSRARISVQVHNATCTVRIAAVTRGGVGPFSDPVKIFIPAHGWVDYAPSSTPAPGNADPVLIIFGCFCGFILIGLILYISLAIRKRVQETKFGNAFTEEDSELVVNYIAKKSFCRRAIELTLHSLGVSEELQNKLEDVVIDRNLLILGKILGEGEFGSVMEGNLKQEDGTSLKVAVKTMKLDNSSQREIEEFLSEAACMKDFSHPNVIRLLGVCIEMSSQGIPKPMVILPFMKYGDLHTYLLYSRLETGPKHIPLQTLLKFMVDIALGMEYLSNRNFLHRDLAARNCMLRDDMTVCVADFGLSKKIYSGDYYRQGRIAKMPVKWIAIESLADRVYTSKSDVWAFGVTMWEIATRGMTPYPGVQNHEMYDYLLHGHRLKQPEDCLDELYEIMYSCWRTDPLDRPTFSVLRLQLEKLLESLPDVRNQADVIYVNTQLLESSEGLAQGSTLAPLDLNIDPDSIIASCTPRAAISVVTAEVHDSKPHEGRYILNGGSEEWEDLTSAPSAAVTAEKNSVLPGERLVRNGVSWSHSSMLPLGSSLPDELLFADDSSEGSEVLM

For `COc1cc2nccc(Oc3ccc(NC(=O)C4(C(=O)Nc5ccc(F)cc5)CC4)cc3)c2nc1OC` [Compound 139, 1-N-[4-[(6,7-dimethoxy-1,5-naphthyridin-4-yl)oxy]phenyl]-1-N′-(4-fluorophenyl)cyclo-propane-1,1-dicarboxamide], the IC50 (usually the concentration needed to halve the response being measured) is no more than 10 nM at Mer, no more than 10 nM at Met [1] and 10 to 100 nM at Met [2].

On to `COc1cc2nccc(Oc3ccc(NC(=O)C4(C(=O)Nc5ccc(F)cc5)CC4)cc3F)c2nc1OC` [Compound 140, 1-N′-[4-[(6,7-dimethoxy-1,5-naphthyridin-4-yl)oxy]-3-fluorophenyl]-1-N-(4-fluorophenyl)cyclopropane-1,1-dicarboxamide], for which the IC50 at Mer, on Met [1] and on Met [2] was no more than 10 nM each time.
